The text below walks through data of patent US10563197B2, “Use of a combination of Dbait molecule and PARP inhibitors to treat cancer” (INSTITUT CURIE, priority 2015, dated 2020).

A word on the IC20: it is the concentration needed for an effect of 20%. One may read the IC50 as the concentration at which inhibition is half-maximal. A higher IC50 goes with lower potency.

Holding throughout (format): cell-based, human
In test [1] the test system is HeLa CTL KD. Briefly: Cell survival, trypan blue counting. The settings on record: 4.80 μM of AsiDNA and/or 0.1 μM of Ola; day 6 after treatment.
Protocol: (§4) Cells were grown according to the supplier's instructions. Cell lines were maintained at 37° C. in a humidified atmosphere at 5% CO2.
(§5) AsiDNA or PARPi cytotoxicity was measured by relative survival and cell death quantification. Adherent cells were seeded in 24-well culture plates at appropriate densities and incubated 24 hours at 37° C. before AsiDNA and/or PARPi addition. Cells were harvested day 6aftertreatment, stained with 0.4% trypan blue (Sigma Aldrich, Saint-Louis, USA) and counted with a Burker chamber. Cell survival was calculated as ratio of living treated cells to living mock-treated cells. Cell death was calculated as the number of dead cells on the total number of counted cells. Additivity of the toxicity was calculated by the product of cell survivals to AsiDNA and cell survivals to PARPi.
Test [2] has as its system HeLa BRCA2 SX. Briefly: Cell survival, trypan blue counting. Conditions: 4.80 μM of AsiDNA and/or 0.1 μM of Ola; day 6 after treatment.
Protocol: as §4, §5
The test system of test [3] is SK28 Lsh DNA-PKcs. Description: Cell survival, trypan blue counting. The settings on record: 4.80 μM of AsiDNA and/or 0.1 μM of Ola; day 6 after treatment.
Protocol: as §4, §5
The subject of test [4] is Hut78. Description: Cell survival, trypan blue counting. Conditions: 4.80 μM of AsiDNA and/or 0.1 μM of Ola; day 6 after treatment.
Protocol: as §4, §5
Test [5] relates to Jurkat. Description: Cell survival, trypan blue counting. The settings on record: 4.80 μM of AsiDNA and/or 0.1 μM of Ola; day 6 after treatment.
Protocol: as §4, §5
Test [6] concerns BC173. Briefly: Cell survival, trypan blue counting. The protocol: (§1) Cells were grown according to the supplier's instructions.
For test [7], the system named is HCC1187. Briefly: Cell survival, trypan blue counting. The method, then:
as §1

The subject of test [8] is MDAMB231. Briefly: Cell survival, trypan blue counting. The method, then:
as §1

For test [9], the system named is MDAMB468. Briefly: Cell survival, trypan blue counting. The protocol:
as §1

Test [10] has as its system BC227. Briefly: Cell survival, trypan blue counting. The settings on record: 4.80 μM of AsiDNA and/or 0.1 μM of Ola; day 6 after treatment; listed as Ola.
Protocol: as §4, §5
The subject of test [11] is MCF12A. Briefly: Cell survival, trypan blue counting. Conditions: 4.80 μM of AsiDNA and/or 0.1 μM of Ola; day 6 after treatment.
Protocol: as §4, §5
For test [12], the system named is Breast cancer cell lines MDAMB231. Description: Cell survival with DT01 and PARP inhibitors (Example 1, FIG. 1). Conditions: DT01 100 or 333 μg/ml plus Olaparib 0.1, 1 μM or Veliparib 1, 10, 50 μM; 6 days. The protocol:
Breast cancer cell lines MDAMB231 were treated with 100 μg/ml (Black, Squares) or 333 μg/ml (Grey, Crosses) of DT01 or no DT01 (Black, Diamond) and exposed to either 0, 0.1 and 1 μM of Olaparib (upper panel) or 1, 10 and 50 μM Veliparib (lower panel). Survival was measured 6 days after treatment using trypan blue to detect living cells. The data are presented as % of the non-treated control.
The human cell lines were grown in complete RPMI (Gibco, Cergy Pontoise, France) supplemented with 10% fetal bovine serum (ATGC, Orléans, France), 1% sodium pyruvate, streptomycin ([…]) and penicillin ([…]) (Invitrogen, Carlsbad, Calif., USA). Cells were maintained at 37° C. under a 5% CO2 atmosphere, at 100% humidity. Treatments were performed by adding nucleotides (DT01 and others) or/and PARP inhibitors at time zero in medium without serum. The medium was changed with fresh medium containing fetal bovine serum 24 hours after beginning of treatment. Cells were let to grow for 4 additional days (5 days after treatment), treated with trypsin and counted for total number of cells. Trypan blue (0.4%) was added for counting the living cells (uncolored) in the population.

For test [13], the system named is 3 immortalized mammary cell lines (MCF10A, MCF12A and 184B5). Description: Cell death and proliferation in non-tumor controls. The settings on record: 0.1 μM for Ola and 4.8 μM for AsiDNA. The protocol: Efficacy of Ola and AsiDNA was assessed by measuring cell death and proliferation in 12BC cell lines including 4BRCA-mutated cell lines (FIGS. 4A and B and FIG. 5). In addition, HeLa cells silenced for BRCA1 or BRCA2 genes were used as a control of BRCA mutation factor and 3 immortalized mammary cell lines (MCF10A, MCF12A and 184B5) as non-tumor controls. The concentration of the drugs (0.1 μM for Ola and 4.8 μM for AsiDNA) were chosen based on the 75-80% survival in the BC227 BRCA2^−/− mutant. […] Ola and AsiDNA treatments had no effect on the three control non-tumor cell lines.
as §1

Test [14] concerns MCF10A non-tumor cells. Description: Alkaline comet assay. Conditions: 24 h; olaparib (1 μM) alone or with AsiDNA (16 μM). The protocol: (§2) To dissect this cytotoxic synergy, the inventors examined the effect of AsiDNA, Ola or both on DNA repair activities. […] Pan-nuclear phosphorylation of H2AX is thought to be involved in the inhibition of HR and NHEJ repair enzyme recruitment by AsiDNA. […] This increase could account for the efficient toxicity of the combination in MDAMB231 cells.
(§3) Cells treated with AsiDNA (16 μM), olaparib (1 μM) or both were suspended in 0.5% low melting point agarose in DMEM and transferred onto a frosted glass microscope slide precoated with a layer of 0.5% normal melting point agarose. Slides were immersed in lysis solution [2.5 mol/L NaCl, 100 mmol/L EDTA, 10 mmol/L Tris, 1% sodium lauryl sarcosinate, 10% DMSO, 1% Triton X-100 (pH 10)] at 4jC for 1 h, placed in a electrophoresis tank containing 0.3 mol/L NaOH (pH 13) and 1 mmol/L EDTA for 40 min, electrophoresis for 25 min at 25 V (300 mA), washed with neutral buffer [400 mmol/L Tris-HCl (pH 7.5)], and stained with 20 Ag/mL ethidium bromide. The variables of the “comets” were quantified with the use of the software Comet Assay 2 (Perceptive Instrument). Triplicate slides were processed for each experimental point. The tail moment is defined as the product of the percentage of DNA in the tail and the displacement between the head and the tail of the comet.

In test [15] the test system is MDAMB231 tumor cells. Briefly: Alkaline comet assay. Conditions: 24 h; AsiDNA (16 μM) or olaparib (1 μM) alone. The method, then: as §2, §3
Test [16] concerns 2 non-tumor cell lines. Description: Combined treatment survival in non-tumor cell lines (FIG. 6, 12). The settings on record: AsiDNA 4.8 μM, olaparib 0.1 and 1 μM; 6 days. The method, then:
Efficacy of AsiDNA (4. 8 μM), olaparib (0, 0.1 and 1 μM) or both was monitored 6 days after treatment by cell counting after trypan blue labeling. (A) Percentage of living cells relative to non-treated condition (NT). (B) Percentage of dead cells. Data are expressed as mean+Sc.D. of at least 2 independent experiments. Dotted lines indicate the calculated cell survivals if additivity between AsiDNA and olaparib.
(A) Percentage of living cells relative to non-treated condition (NT). (B) Percentage of dead cells. Dotted lines indicate the calculated cell survivals if additivity between AsiDNA and veliparib.
The inventors monitored cell survival to combined treatment of 3 BC and 2 non-tumor cell lines with different sensitivities to Ola and AsiDNA alone (FIG. 6; Table 1).

[17] abbreviates: 0.1 μM Ola, 4.8 μM AsiDNA, sensitive = difference in % dead cells higher than two-fold.
[18] abbreviates: 4.80 μM of AsiDNA and/or 0.1 μM of Ola, day 6 after treatment.

As to `O=C(c1cc(Cc2n[nH]c(=O)c3ccccc23)ccc1F)N1CCN(C(=O)C2CC2)CC1` [Olaparib, 4-[(3-[(4-cyclopropylcarbonyl)piperazin-4-yl]carbonyl)-4-fluorophenyl]methyl(2H)-phthalazin-1-one], the “Survival (%/NT)” value in test [1] was 97.2 %/NT; in test [2], 65.0 %/NT; in test [3], 80.9 %/NT; in test [4], 85.8 %/NT; in test [5], 68.4 %/NT; in [6] (setting [18]) it was 94.4 %/NT. In addition, the “Survival (%/NT)” value worked out at 61.5 %/NT in [7] (setting [18]); 90.9 %/NT in [8] (setting [18]); 68.3 %/NT in [9] (setting [18]); 75.3 %/NT in test [10]; 88.5 %/NT in test [11]. The sensitivity to treatment result in test [6] (setting [17]) is listed as “sensitive only to AsiDNA”; in test [7] (setting [17]) it was “sensitive only to Ola”; in test [8] (setting [17]) it was “resistant to both treatments”; in test [9] (setting [17]), “sensitive to both treatments”. The IC20 in [8] (Homo sapiens, MDA-MB-231, MDAMB231, PARPi dose giving 80% survival) came out at 1000 nM. The compound further returned an IC50 in test [8] (Homo sapiens, MDA-MB-231, MDAMB231, PARPi dose resulting in 50% survival) of 3700 nM. In addition, in [12], the “survival to combined treatment with DT01 versus expected added effect of both single treatments” value was “synergic effect”. The “effect on cell death and proliferation” value in [13] is “no effect”. For the same compound, the “DNA damage (alkaline comet assay)” value in test [14] is “slight increase of DNA damage”; in test [15], “induced accumulation of damage”. Besides, in test [16], the “sensitivity to combined and single treatments” value is “insensitive”.
